The results in this text go back to PubChem BioAssay (NCI).

Among the test systems are MCF7 breast; HCT-15 colon; SNB-75 CNS; HS 578T breast; A498 renal; NCI/ADR-RES ovarian; K-562 leukemia; NCI-H226 lung; NCI-H23 lung; RPMI-8226 leukemia.
Common to all, as to test: inhibition of tumour cell growth, NCI panel, 48 h

Where “and” joins values, the source holds several entries; their conditions need not be identical. Identical values can stand only once.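 Growth conditions: 96-well plates. Treatment: test compound, 48 hours, 5 concentrations. Analysis: linear interpolation between bracketing concentrations; unreached endpoints set to highest concentration. GI50 marks 50% less growth. TGI is the concentration that stops growth completely.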

Take `CN(C)CCCNC(=O)c1cncnc1Nc1ccc(OCc2cccc(F)c2)c(Cl)c1`: the GI50 in the assay on MCF7 breast is 1.56 µM; with HCT-15 colon, 1.38 µM; in the assay on SNB-75 CNS it was 1.64 µM; in the assay on HS 578T breast, 1.56 µM; in the assay with A498 renal it was 1.56 µM; with NCI/ADR-RES ovarian it was 1.89 µM. The GI50 with K-562 leukemia was 1740 nM; with NCI-H226 lung, 4.27 µM; in the assay with NCI-H23 lung, 1.74 µM. The TGI in the assay with MCF7 breast stood at 3.06 µM; in the assay with HCT-15 colon it was 2.75 µM; in the assay on SNB-75 CNS, 3.22 µM; with HS 578T breast it was 3.3 µM; in the assay with A498 renal it was 2.93 µM; with NCI/ADR-RES ovarian, 3.77 µM. Also, the TGI in the assay on K-562 leukemia came out at 3.73 µM; in the assay with NCI-H226 lung, 19.6 µM; in the assay on NCI-H23 lung it was 3.28 µM.

On to `CCCCCCc1nc2nc(Cl)c(Cl)nc2[nH]1`, for which the GI50 with MCF7 breast is 4.08 µM; with HCT-15 colon, 5.06 µM; with RPMI-8226 leukemia, 2.66 µM; in the assay with HS 578T breast, greater than 100 µM; with A498 renal, 3.81 µM; with NCI/ADR-RES ovarian it was 6.92 µM. Further, the GI50 with K-562 leukemia is 5290 nM; in the assay with NCI-H226 lung it was 7.21 µM; with NCI-H23 lung, 3.68 µM. Moreover, the TGI in the assay on MCF7 breast, in the assay with HCT-15 colon, in the assay on RPMI-8226 leukemia, with HS 578T breast, in the assay with A498 renal and with NCI/ADR-RES ovarian was greater than 100 µM throughout. Besides, the TGI in the assay with K-562 leukemia, in the assay on NCI-H226 lung and with NCI-H23 lung was greater than 100 µM throughout.

`Cc1cc2c(c3oc(C4(C)OC4C4OC4C)cc(=O)c13)C(=O)c1c(O)c(C3CC(C)(N(C)C)C(O)C(C)O3)cc(C3CC(N(C)C)C(O)C(C)O3)c1C2=O` (configuration not stated): the TGI was 0.0142 µM and 0.0557 µM and 0.00725 µM in the assay with RPMI-8226 leukemia; 0.00405 µM and 0.00187 µM in the assay with HS 578T breast; 0.00114 µM in the assay on A498 renal; 0.0147 µM and 0.0192 µM and 0.0348 µM in the assay on K-562 leukemia; 0.000537 µM and 0.000944 µM in the assay with NCI-H226 lung. The GI50 in the assay with HS 578T breast is 0.00158 µM; in the assay with A498 renal, 0.00057 µM; with K-562 leukemia, 0.0838 nM and 0.124 nM.

Consider `COc1ccc2c(c1OC)OCC(CN(C)C)C2=O` (configuration not stated), for which the TGI is 27.5 µM in the assay on MCF7 breast; 36.5 µM in the assay on HCT-15 colon; 52.4 µM in the assay on SNB-75 CNS; 8.56 µM in the assay with RPMI-8226 leukemia; greater than 87.4 µM in the assay on HS 578T breast; 72.1 µM in the assay on NCI/ADR-RES ovarian. The TGI was 10.5 µM with K-562 leukemia, greater than 67.4 µM in the assay with NCI-H226 lung and 35.8 µM in the assay on NCI-H23 lung.

On to `Cc1cn2c(/C=N/N=C(N)N)c(-c3cccnc3)nc2s1`, for which the GI50 with MCF7 breast is 20.8 µM; in the assay on HCT-15 colon, 4.39 µM; in the assay with RPMI-8226 leukemia, 8.91 µM; in the assay on HS 578T breast, 23.5 µM; with NCI/ADR-RES ovarian, 2.81 µM; in the assay with NCI-H226 lung, 10.1 µM. In addition, the GI50 with NCI-H23 lung is 11.9 µM. In addition, the TGI was greater than 100 µM in the assay on MCF7 breast; 18.1 µM with HCT-15 colon; 58.9 µM in the assay with RPMI-8226 leukemia; 47.1 µM in the assay with HS 578T breast; 9.97 µM in the assay with NCI/ADR-RES ovarian; 29.4 µM in the assay on NCI-H226 lung. For the same compound, the TGI in the assay with NCI-H23 lung was found to be 25.2 µM.

Consider `NC1=NCCN1CC(=O)O`, for which the GI50 is greater than 10000 µM in the assay with MCF7 breast; greater than 10000 µM in the assay on HCT-15 colon; greater than 10000 µM with RPMI-8226 leukemia; greater than 1000 µM in the assay with HS 578T breast; greater than 10000 µM in the assay on A498 renal; greater than 10000 µM in the assay on NCI/ADR-RES ovarian. For the same compound, the GI50 in the assay with NCI-H226 lung and in the assay on NCI-H23 lung was greater than 10000 µM each time. Further, the TGI in the assay with MCF7 breast, with HCT-15 colon, with RPMI-8226 leukemia, in the assay on HS 578T breast, in the assay on A498 renal and in the assay with NCI/ADR-RES ovarian was greater than 10000 µM throughout. The values for the TGI with K-562 leukemia, with NCI-H226 lung and in the assay on NCI-H23 lung were greater than 1000 µM, greater than 10000 µM and greater than 10000 µM, respectively.

As to `OCC1OC(n2cnc3c(Cl)nc(Cl)cc32)C(O)C1O` (configuration not stated), the GI50 in the assay on MCF7 breast is greater than 100 µM; in the assay on HCT-15 colon, greater than 100 µM; with RPMI-8226 leukemia it was greater than 100 µM; with HS 578T breast, 19.7 µM; with NCI/ADR-RES ovarian, greater than 100 µM; with K-562 leukemia, greater than 100000 nM. Further, the GI50 with NCI-H23 lung was greater than 100 µM. For the same compound, the TGI with MCF7 breast, in the assay with HCT-15 colon, in the assay on RPMI-8226 leukemia, with HS 578T breast, in the assay with NCI/ADR-RES ovarian and with K-562 leukemia was greater than 100 µM in each case. In the assay on NCI-H23 lung, the TGI is greater than 100 µM.

As for `CCc1ccc2c(c1)N(CCO)C1=C(C(=O)OC1)C2c1cccc(Cl)c1` (configuration not stated), the GI50 in the assay with HCT-15 colon was 0.605 µM; in the assay on SNB-75 CNS it was 0.395 µM; with RPMI-8226 leukemia, 3.38 µM; in the assay with HS 578T breast, 1.37 µM; in the assay on A498 renal, 0.36 µM; in the assay on NCI/ADR-RES ovarian, 0.337 µM. The values for the GI50 with K-562 leukemia, in the assay on NCI-H226 lung and in the assay on NCI-H23 lung were 485 nM, 1.35 µM and 0.923 µM, respectively. For the same compound, the TGI in the assay with HCT-15 colon is 17.9 µM; with SNB-75 CNS, 14.6 µM; with RPMI-8226 leukemia it was 52.6 µM; with HS 578T breast it was 32.2 µM; in the assay on A498 renal it was 11.4 µM; in the assay on NCI/ADR-RES ovarian, 5.05 µM. For the same compound, the TGI with K-562 leukemia came to 23.9 µM; in the assay on NCI-H226 lung, 10.5 µM; in the assay on NCI-H23 lung, 20.9 µM.

With `CN(C)CCOC(c1ccccc1)c1ccccc1`, the GI50 is 36.5 µM with MCF7 breast; 36.7 µM in the assay on HCT-15 colon; 32.2 µM with HS 578T breast; 40.9 µM with A498 renal; 33.1 µM in the assay on NCI/ADR-RES ovarian; 39.7 µM with NCI-H226 lung. In the assay on NCI-H23 lung, the GI50 was 38 µM. In addition, the TGI was 54 µM and > 100 µM with MCF7 breast; 51.5 µM and > 100 µM in the assay with HCT-15 colon; greater than 100 µM with RPMI-8226 leukemia; 51.3 µM and > 100 µM in the assay with HS 578T breast; 58.4 µM in the assay with A498 renal; 48.9 µM and > 100 µM with NCI/ADR-RES ovarian. The TGI was greater than 100 µM in the assay on K-562 leukemia; 56.4 µM and > 100 µM in the assay with NCI-H226 lung; 53.4 µM and > 100 µM in the assay with NCI-H23 lung.
